Measured values reported in the CheMixHub viscosity set.
± gives the uncertainty stated by the source.

Experiment: xn = mol fraction of the nth substance listed

CC(=O)[O-].C[N+]1(CC2CO2)CCCC1=O (stereo not drawn) + O
viscosity [mPa·s], 101 kPa
Conditions	293.15 K	298.15 K	303.15 K	308.15 K	313.15 K
x1 = 0.0346	2.26 ± 0.05	1.94 ± 0.04	1.67 ± 0.03	1.46 ± 0.03	1.29 ± 0.03
x1 = 0.0775	4.27 ± 0.09	3.56 ± 0.07	3.01 ± 0.06	2.6 ± 0.05	2.28 ± 0.05
x1 = 0.1028	5.4 ± 0.11	4.45 ± 0.09	3.71 ± 0.08	3.13 ± 0.06	2.67 ± 0.06
x1 = 0.2008	7.75 ± 0.16	6.28 ± 0.13	5.18 ± 0.11	4.33 ± 0.09	3.63 ± 0.07
x1 = 0.3054	8.32 ± 0.17	6.76 ± 0.14	5.57 ± 0.12	4.67 ± 0.1	3.95 ± 0.08
x1 = 0.4045	8.17 ± 0.17	6.7 ± 0.14	5.56 ± 0.12	4.69 ± 0.1	4 ± 0.08
x1 = 0.5113	7.82 ± 0.16	6.47 ± 0.14	5.41 ± 0.11	4.6 ± 0.1	3.94 ± 0.08
x1 = 0.6049	7.47 ± 0.16	6.23 ± 0.13	5.23 ± 0.11	4.47 ± 0.1	3.85 ± 0.08
x1 = 0.7052	7.16 ± 0.15	6.01 ± 0.13	5.1 ± 0.11	4.38 ± 0.09	3.79 ± 0.08
x1 = 0.8048	6.92 ± 0.15	5.83 ± 0.13	4.97 ± 0.11	4.28 ± 0.09	3.72 ± 0.08
x1 = 0.9047	6.73 ± 0.15	5.68 ± 0.13	4.87 ± 0.11	4.21 ± 0.09	3.67 ± 0.08

CC1(C)S[C@@H]2[C@H](NC(=O)[C@H](N)c3ccc(O)cc3)C(=O)N2[C@H]1C(=O)O + O
viscosity [mPa·s], 101 kPa
Conditions	x1 = 9e-06	x1 = 1.8e-05	x1 = 2e-05	x1 = 3.2e-05	x1 = 3.6e-05	x1 = 5e-05	x1 = 6.8e-05
305.15 K	0.7741 ± 0.016	0.7672 ± 0.016	0.7642 ± 0.02	0.7659 ± 0.02	0.7708 ± 0.016	0.7668 ± 0.02	0.7686 ± 0.02
310.15 K	0.7042 ± 0.016	0.7023 ± 0.016	0.6984 ± 0.018	0.6991 ± 0.018	0.7032 ± 0.016	0.7014 ± 0.018	0.7026 ± 0.018
315.15 K	0.6458 ± 0.016	0.6448 ± 0.016	0.6386 ± 0.017	0.6392 ± 0.017	0.6469 ± 0.016	0.6401 ± 0.017	0.6421 ± 0.017

CCCC(N)=O + O
298.15 K, 101 kPa
Conditions	viscosity [mPa·s]
x1 = 0.00213	0.906 ± 0.18
x1 = 0.0179	1.122 ± 0.23
x1 = 0.0403	1.458 ± 0.29
x1 = 0.04319	1.511 ± 0.3

CCCC[N+](CCCC)(CCCC)CCCC.[Br-] + O
298.15 K, 101 kPa
Conditions	viscosity [mPa·s]
x1 = 0.0009	0.8723
x1 = 0.0089	1.538
x1 = 0.0177	2.273

CN1CCCN2CCCN=C12 + O
100 kPa
Conditions	viscosity [mPa·s]
294.96 K, x1 = 0.5035	29.2 ± 3.5
296.8 K, x1 = 0.1982	23.1 ± 3.8
296.87 K, x1 = 0.1982	24.9 ± 3.9
298.43 K, x1 = 0.5035	23.6 ± 2.8
298.43 K, x1 = 0.798	11.2 ± 1.3
303.69 K, x1 = 0.1982	15.8 ± 1.9
308.29 K, x1 = 0.5035	14 ± 1.7
308.31 K, x1 = 0.798	7.6 ± 0.9
313.13 K, x1 = 0.1982	11.5 ± 1.4
318.19 K, x1 = 0.798	5.6 ± 0.7

C[C@H](O)C(=O)O + O
viscosity [mPa·s], 101 kPa
Conditions	x1 = 0.000625	x1 = 0.000941	x1 = 0.00124	x1 = 0.00156	x1 = 0.001899	x1 = 0.002188	x1 = 0.002523	x1 = 0.002822	x1 = 0.003145
298.15 K	0.898 ± 0.007	0.902 ± 0.007	0.906 ± 0.007	0.91 ± 0.007	0.914 ± 0.007	0.917 ± 0.007	0.922 ± 0.007	0.926 ± 0.007	0.929 ± 0.007
308.15 K	0.731 ± 0.006	0.734 ± 0.006	0.736 ± 0.006	0.738 ± 0.006	0.741 ± 0.006	0.744 ± 0.006	0.747 ± 0.006	0.75 ± 0.006	0.753 ± 0.006
318.15 K	0.601 ± 0.005	0.602 ± 0.005	0.604 ± 0.005	0.605 ± 0.005	0.607 ± 0.005	0.61 ± 0.005	0.612 ± 0.005	0.614 ± 0.005	0.616 ± 0.005

C[NH2+]CCO.O=C([O-])c1ccccc1O + O
100 kPa, x2 = 0.143
Conditions	viscosity [mPa·s]
298 K	357.8 ± 15
303 K	249.1 ± 10
313 K	128.2 ± 4.7
323 K	72.71 ± 2.5

Cc1cccnc1 + O
298.15 K, 101 kPa
Conditions	viscosity [mPa·s]
x1 = 0.02104	1.202 ± 0.019
x1 = 0.04558	1.604 ± 0.026
x1 = 0.2966	3.291 ± 0.053
x1 = 0.6032	1.972 ± 0.032

NCCN1CCNCC1 + O
101.3 kPa
Conditions	viscosity [mPa·s]
298 K, x1 = 0.00152	0.92 ± 0.05
298 K, x1 = 0.00275	0.95 ± 0.05
298 K, x1 = 0.00774	1.11 ± 0.06
298 K, x1 = 0.0161	1.38 ± 0.07
298 K, x1 = 0.0255	1.82 ± 0.09
303 K, x1 = 0.00152	0.87 ± 0.04
303 K, x1 = 0.00275	0.89 ± 0.05
303 K, x1 = 0.00774	1 ± 0.05
303 K, x1 = 0.0161	1.25 ± 0.06
303 K, x1 = 0.0255	1.66 ± 0.08
303.2 K, x1 = 0.015	1.241 ± 0.026
303.2 K, x1 = 0.024	1.651 ± 0.035
303.2 K, x1 = 0.034	2.17 ± 0.05
303.2 K, x1 = 0.044	2.861 ± 0.063
303.2 K, x1 = 0.056	3.918 ± 0.084
303.2 K, x1 = 0.07	4.722 ± 0.1
303.2 K, x1 = 0.085	5.556 ± 0.12
313 K, x1 = 0.00152	0.74 ± 0.04
313 K, x1 = 0.00275	0.78 ± 0.04
313 K, x1 = 0.00774	0.85 ± 0.04
313 K, x1 = 0.0161	1.04 ± 0.05
313 K, x1 = 0.0255	1.32 ± 0.07
313.2 K, x1 = 0.015	1.001 ± 0.021
313.2 K, x1 = 0.024	1.312 ± 0.028
313.2 K, x1 = 0.034	1.589 ± 0.035
313.2 K, x1 = 0.044	2.074 ± 0.045
313.2 K, x1 = 0.056	2.839 ± 0.062
313.2 K, x1 = 0.07	3.558 ± 0.077
313.2 K, x1 = 0.085	4.367 ± 0.094
323 K, x1 = 0.00152	0.6 ± 0.03
323 K, x1 = 0.00275	0.61 ± 0.03
323 K, x1 = 0.00774	0.69 ± 0.04
323 K, x1 = 0.0161	0.83 ± 0.04
323 K, x1 = 0.0255	1.03 ± 0.05

NCCNCCN + O
viscosity [mPa·s], 101 kPa
Conditions	293.15 K	298.15 K	303.15 K	313.15 K	323.15 K
x1 = 0.0425	–	2.44 ± 0.73	2.06 ± 0.62	1.55 ± 0.47	1.23 ± 0.37
x1 = 0.0565	–	–	–	–	1.615 ± 0.066
x1 = 0.0568	–	3.46 ± 1	2.88 ± 0.87	2.07 ± 0.62	1.6 ± 0.48
x1 = 0.1	11.17 ± 1.6	–	7.2 ± 0.81	4.78 ± 0.46	3.41 ± 0.29
x1 = 0.1999	48.86 ± 3.1	–	24.8 ± 1.6	14.08 ± 0.88	8.54 ± 0.53
x1 = 0.2999	61.11 ± 3.7	–	30.19 ± 1.8	16.63 ± 1	10.2 ± 0.62
x1 = 0.3997	44.08 ± 2.7	–	23.49 ± 1.4	13.62 ± 0.83	8.35 ± 0.51
x1 = 0.4997	29.78 ± 1.9	–	16.66 ± 1	10.31 ± 0.64	6.79 ± 0.42
x1 = 0.5997	20.36 ± 1.3	–	12.11 ± 0.75	7.77 ± 0.48	5.28 ± 0.32
x1 = 0.6996	14.64 ± 0.91	–	9.24 ± 0.57	6.17 ± 0.38	4.22 ± 0.26
x1 = 0.7992	10.95 ± 0.68	–	–	4.9 ± 0.3	3.55 ± 0.22
x1 = 0.8073	–	–	–	–	3.445 ± 0.14
x1 = 0.8954	8.515 ± 0.34	–	–	–	–
x1 = 0.8989	8.48 ± 0.52	–	5.52 ± 0.34	4.11 ± 0.25	3.03 ± 0.18
